Results reported in US12599672B2, “KRAS proteolysis targeting chimeras” (PAQ Therapeutics Inc., priority 2023, dated 2026).

Assays:
Assay type in all cases: cell-based
[1] = molecular target: T1, KRAS (Homo sapiens, UniProt P01116); assay: KRASamp MSD assay; details: KE39 (KRAS amplified) cells, treated with test compounds for 24 hr, MSD readout of KRAS degradation
T1 construct: endogenous in cells; host or cells: KE39 (KRAS amplified) cells
Procedure, shortened: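 KRAS-amplified KE39 cells treated with compound for 24 hr, then lysed in RIPA buffer with protease/phosphatase inhibitors. KRAS protein measured by MSD sandwich immunoassay against a recombinant WT KRAS standard curve; DC50 derived from curve fitting of degradation.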

[2] = molecular target: T2, KRAS G12D (Homo sapiens, UniProt P01116, G12D); assay: KRAS G12D HiBit assay; details: AsPc-1-KRAS (G12D)-HiBit-KI cell, compound treatment for 24 hours; for DC50: absolute DC50
T2 construct: AsPc-1-KRAS (G12D)-HiBit-KI cell (Pharmaron); host or cells: AsPc-1-KRAS (G12D)-HiBit-KI cells (HiBiT knock-in at the endogenous KRAS locus)
Procedure, shortened: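 Cells were treated for 24 h with compounds in a 3-fold, 10-point dilution series from a 0.3 mM DMSO stock, then equilibrated 15 min at room temperature. KRAS G12D HiBiT levels were read by luminescence after lytic Nano-Glo HiBiT reagent with LgBiT; inhibition calculated relative to 0.1% DMSO high control.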

[3] = molecular target: T3, KRAS G12V (Homo sapiens, UniProt P01116, G12V); assay: KRAS G12V HiBit assay; details: SW620-KRAS (G12V)-HiBit-KI cells, compound treatment for 24 hours, class symbols
T3 construct: SW620-KRAS (G12V)-HiBit-KI cell (Pharmaron); host or cells: SW620-KRAS (G12V)-HiBit-KI cells (HiBiT knock-in at the endogenous KRAS locus)
Procedure, shortened: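 HiBiT-tagged KRAS G12V cells treated 24 h with compound in a 3-fold, 10-point series (0.3 mM DMSO stock); lytic HiBiT reagent with LgBiT added after 15 min room-temperature equilibration. Degradation calculated against 0.1% DMSO high control.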

[4] = numeric bounds given in place of class symbols

T3 sequence (P01116 1-188 isoform P01116-2 G12V): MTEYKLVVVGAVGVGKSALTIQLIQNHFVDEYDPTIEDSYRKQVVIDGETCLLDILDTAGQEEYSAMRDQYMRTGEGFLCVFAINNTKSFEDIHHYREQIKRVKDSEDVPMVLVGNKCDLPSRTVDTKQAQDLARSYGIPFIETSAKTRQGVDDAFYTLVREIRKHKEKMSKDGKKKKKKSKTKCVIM
T1 sequence (P01116 1-188 isoform P01116-2): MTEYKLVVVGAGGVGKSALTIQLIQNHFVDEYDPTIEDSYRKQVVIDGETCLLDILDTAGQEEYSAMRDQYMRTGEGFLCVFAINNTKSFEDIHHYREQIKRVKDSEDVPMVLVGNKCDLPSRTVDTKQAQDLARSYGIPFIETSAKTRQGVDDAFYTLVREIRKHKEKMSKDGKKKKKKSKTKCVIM
T2 sequence (P01116 1-188 isoform P01116-2 G12D): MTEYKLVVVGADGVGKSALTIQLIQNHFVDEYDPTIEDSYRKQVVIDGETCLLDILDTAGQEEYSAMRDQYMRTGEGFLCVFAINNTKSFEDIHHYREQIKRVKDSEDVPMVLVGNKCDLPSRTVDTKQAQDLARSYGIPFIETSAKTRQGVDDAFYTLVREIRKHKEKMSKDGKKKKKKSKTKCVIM

Row | DC50 [1] [nM] | DC50 ([2]; class symbols) [nM] | DC50 [3] [nM] | DC50 [2, 4] [nM] | Dmax ([2]; class symbols) [%] | Structure (SMILES)
1 | 1 to 10 | < 100 | < 10 |  |  | CCc1c(F)ccc2cc(O)cc(-c3ncc4c(N5CCC[C@@](C)(O)C5)nc(OC[C@@]56CCCN5[C@H](COC(=O)N5CCC7(CC5)CCN(C5CCN(c8ccc9c(c8)n(C)c(=O)n9C8CCC(=O)NC8=O)CC5)C7)CC6)nc4c3F)c12 (stereo partly drawn) [Compound 456, ((3S,7aS)-7a-(((7-(8-ethyl-7-fluoro-3-hydroxynaphthalen-1-yl)-8-fluoro-4-((R)-3-hydroxy-3-methylpiperidin-1-yl)pyrido[4,3-d]pyrimidin-2-yl)oxy)methyl)hexahydro-1H-pyrrolizin-3-yl)methyl 2-(1-(1-(2,6-dioxopiperidin-3-yl)-3-methyl-2-oxo-2,3-dihydro-1H-benzo[d]imidazol-5-yl)piperidin-4-yl)-2,8-diazaspiro[4.5]decane-8-carboxylate]
2 | < 1 | < 100 | < 10 |  |  | CCc1c(F)ccc2cc(O)cc(-c3ncc4c(N5CCCC(F)(F)C5)nc(OC[C@@]56CCCN5[C@H](COC(=O)N5CCC(CN7CCC(c8ccc9c(c8)n(C)c(=O)n9C8CCC(=O)NC8=O)CC7)CC5)CC6)nc4c3F)c12 (stereo partly drawn) [Compound 437, ((3S,7aS)-7a-(((4-(3,3-difluoropiperidin-1-yl)-7-(8-ethyl-7-fluoro-3-hydroxynaphthalen-1-yl)-8-fluoropyrido[4,3-d]pyrimidin-2-yl)oxy)methyl)hexahydro-1H-pyrrolizin-3-yl)methyl 4-((4-(1-(2,6-dioxopiperidin-3-yl)-3-methyl-2-oxo-2,3-dihydro-1H-benzo[d]imidazol-5-yl)piperidin-1-yl)methyl)piperidine-1-carboxylate]
3 | ≥ 10 |  | > 100 | > 100 |  | CCc1c(F)ccc2cc(O)cc(-c3ncc4c(N5CCCC5)nc(OC[C@@]56CCCN5[C@H](COC(=O)N5CCC7(CC5)CC(N5CCC(c8ccc9c(c8)n(C)c(=O)n9C8CCC(=O)NC8=O)CC5)C7)CC6)nc4c3F)c12 (stereo partly drawn) [Compound 348, ((3S,7aS)-7a-(((7-(8-ethyl-7-fluoro-3-hydroxynaphthalen-1-yl)-8-fluoro-4-(pyrrolidin-1-yl)pyrido[4,3-d]pyrimidin-2-yl)oxy)methyl)hexahydro-1H-pyrrolizin-3-yl)methyl 2-(4-(1-(2,6-dioxopiperidin-3-yl)-3-methyl-2-oxo-2,3-dihydro-1H-benzo[d]imidazol-5-yl)piperidin-1-yl)-7-azaspiro[3.5]nonane-7-carboxylate]
4 | < 1 | < 100 | < 10 |  |  | Cn1c(=O)n(C2CCC(=O)NC2=O)c2ccc(C3CCN(CC4(F)CCN(C(=O)OC[C@@H]5CC[C@]6(COc7nc(N8CCC[C@@](C)(O)C8)c8cnc(-c9cc(O)cc%10ccc(F)cc9%10)c(F)c8n7)CCCN56)CC4)CC3)cc21 (stereo partly drawn) [Compound 446, ((3S,7aS)-7a-(((8-fluoro-7-(7-fluoro-3-hydroxynaphthalen-1-yl)-4-((R)-3-hydroxy-3-methylpiperidin-1-yl)pyrido[4,3-d]pyrimidin-2-yl)oxy)methyl)hexahydro-1H-pyrrolizin-3-yl)methyl 4-((4-(1-(2,6-dioxopiperidin-3-yl)-3-methyl-2-oxo-2,3-dihydro-1H-benzo[d]imidazol-5-yl)piperidin-1-yl)methyl)-4-fluoropiperidine-1-carboxylate]
5 | ≥ 10 | < 100 | 10 to 100 |  |  | C#Cc1c(F)ccc2cc(O)cc(-c3ncc4c(N5CCC[C@@](C)(O)C5)nc(OC[C@@]56CCCN5[C@H](COC(=O)N5CCC(N7CC(N8CCC(c9ccc%10c(c9)n(C)c(=O)n%10C9CCC(=O)NC9=O)CC8)C7)CC5)CC6)nc4c3F)c12 (stereo partly drawn) [Compound 414, ((3S,7aS)-7a-(((7-(8-ethynyl-7-fluoro-3-hydroxynaphthalen-1-yl)-8-fluoro-4-((R)-3-hydroxy-3-methylpiperidin-1-yl)pyrido[4,3-d]pyrimidin-2-yl)oxy)methyl)hexahydro-1H-pyrrolizin-3-yl)methyl 4-(3-(4-(1-(2,6-dioxopiperidin-3-yl)-3-methyl-2-oxo-2,3-dihydro-1H-benzo[d]imidazol-5-yl)piperidin-1-yl)azetidin-1-yl)piperidine-1-carboxylate]
6 | 1 to 10 | < 100 | < 10 |  | > 50 | C#Cc1c(F)ccc2cc(O)cc(-c3ncc4c(N5CCCC(C#N)CC5)nc(OC[C@@]56CCCN5[C@H](COC(=O)N5CCC(CN7CCC(c8ccc9c(c8)n(C)c(=O)n9C8CCC(=O)NC8=O)CC7)CC5)CC6)nc4c3F)c12 (stereo partly drawn) [Compound 110, ((3S,7aS)-7a-(((4-(4-Cyanoazepan-1-yl)-7-(8-ethynyl-7-fluoro-3-hydroxynaphthalen-1-yl)-8-fluoropyrido[4,3-d]pyrimidin-2-yl)oxy)methyl)hexahydro-1H-pyrrolizin-3-yl)methyl 4-((4-(1-(2,6-dioxopiperidin-3-yl)-3-methyl-2-oxo-2,3-dihydro-1H-benzo[d]imidazol-5-yl)piperidin-1-yl)methyl) piperidine-1-carboxylate]
7 | 1 to 10 | < 100 | 10 to 100 |  |  | C#Cc1c(F)ccc2cc(O)cc(-c3ncc4c(N5CCC[C@@](C)(O)C5)nc(OC[C@@]56CCCN5[C@H](COC(=O)N5CC7(CCC(N8CCC(c9ccc%10c(c9)n(C)c(=O)n%10C9CCC(=O)NC9=O)CC8)CC7)C5)CC6)nc4c3F)c12 (stereo partly drawn) [Compound 420, ((3S,7aS)-7a-(((7-(8-ethynyl-7-fluoro-3-hydroxynaphthalen-1-yl)-8-fluoro-4-((R)-3-hydroxy-3-methylpiperidin-1-yl)pyrido[4,3-d]pyrimidin-2-yl)oxy)methyl)hexahydro-1H-pyrrolizin-3-yl)methyl 7-(4-(1-(2,6-dioxopiperidin-3-yl)-3-methyl-2-oxo-2,3-dihydro-1H-benzo[d]imidazol-5-yl)piperidin-1-yl)-2-azaspiro[3.5]nonane-2-carboxylate]
8 | < 1 | < 100 | < 10 |  |  | CCc1c(F)ccc2cc(O)cc(-c3ncc4c(N5CCCOCC5)nc(OC[C@@]56CCCN5[C@H](COC(=O)N5CCC7(CC5)CC(N5CCC(c8ccc9c(c8)n(C)c(=O)n9C8CCC(=O)NC8=O)CC5)C7)CC6)nc4c3F)c12 (stereo partly drawn) [Compound 489, ((3S,7aS)-7a-(((7-(8-ethyl-7-fluoro-3-hydroxynaphthalen-1-yl)-8-fluoro-4-(1,4-oxazepan-4-yl)pyrido[4,3-d]pyrimidin-2-yl)oxy)methyl)hexahydro-1H-pyrrolizin-3-yl)methyl 2-(4-(1-(2,6-dioxopiperidin-3-yl)-3-methyl-2-oxo-2,3-dihydro-1H-benzo[d]imidazol-5-yl)piperidin-1-yl)-7-azaspiro[3.5]nonane-7-carboxylate]
9 | ≥ 10 |  | > 100 | > 100 |  | CCc1c(F)ccc2cc(O)cc(-c3ncc4c(N5CCCC(C)(CO)C5)nc(OC[C@@]56CCCN5[C@H](COC(=O)N5CCC(CN7CCC(c8ccc9c(c8)n(C)c(=O)n9C8CCC(=O)NC8=O)CC7)CC5)CC6)nc4c3F)c12 (stereo partly drawn) [Compound 341, ((3S,7aS)-7a-(((7-(8-ethyl-7-fluoro-3-hydroxynaphthalen-1-yl)-8-fluoro-4-(3-(hydroxymethyl)-3-methylpiperidin-1-yl)pyrido[4,3-d]pyrimidin-2-yl)oxy)methyl)hexahydro-1H-pyrrolizin-3-yl)methyl 4-((4-(1-(2,6-dioxopiperidin-3-yl)-3-methyl-2-oxo-2,3-dihydro-1H-benzo[d]imidazol-5-yl)piperidin-1-yl)methyl)piperidine-1-carboxylate]
